Assay: xn = mol fraction of the nth substance listed
Details: 101 kPa, Liquid; for mass density: Vibrating tube method

c1ccccc1 [benzene] + CCc1ccccc1
x1 = 1
Details	mass density [kg/m3]	viscosity [mPa·s]
308.15 K	862.9	0.5272
313.15 K	857.7	0.4942

C1CCCCCCC1 [cyclooctane] + Cc1ccccc1
Details	mass density, 308.15 K [kg/m3]	mass density, 313.15 K [kg/m3]	viscosity, 308.15 K [mPa·s]	viscosity, 313.15 K [mPa·s]
x2 = 0	823.6	819.7	1.803	1.636
x2 = 0.0997	824.6	820.7	1.443	1.326
x2 = 0.1951	826	822.1	1.198	1.112
x2 = 0.3032	828.1	824.1	1.003	0.9333
x2 = 0.3904	830	826	0.8748	0.8203
x2 = 0.4868	832.5	828.5	0.7834	0.701
x2 = 0.5898	835.6	831.4	0.6981	0.6579
x2 = 0.6919	839.2	834.9	0.6266	0.5912
x2 = 0.8003	843.4	839.1	0.5673	0.5364
x2 = 0.888	847.3	842.9	0.5361	0.5033

c1ccccc1 [benzene] + CCCCCCC
Details	mass density, 308.15 K [kg/m3]	mass density, 313.15 K [kg/m3]	viscosity, 308.15 K [mPa·s]	viscosity, 313.15 K [mPa·s]
x1 = 0.1099	683.6	679.4	0.3518	0.3342
x1 = 0.2052	695.3	691.1	0.3593	0.3356
x1 = 0.2896	706.6	702.4	0.3562	0.3387
x1 = 0.4212	726.5	722.1	0.3632	0.345
x1 = 0.5078	740.9	736.4	0.3724	0.3534
x1 = 0.6087	760	755.4	0.3925	0.3667
x1 = 0.7263	785.5	780.8	0.4094	0.3879
x1 = 0.7936	801.9	797.1	0.4262	0.4031
x1 = 0.8987	830.6	825.6	0.4734	0.4408
x1 = 1	862.9	857.7	0.5272	0.4942

CCCCCCC [heptane] + c1ccccc1
x2 = 0
Details	mass density [kg/m3]	viscosity [mPa·s]
308.15 K	671.3	0.3497
313.15 K	667.1	0.3329

CCCCCCC [heptane] + Cc1ccccc1
x1 = 1
Details	mass density [kg/m3]	viscosity [mPa·s]
308.15 K	671.3	0.3497
313.15 K	667.1	0.3329

C1CCCCCCC1 [cyclooctane] + CCc1ccccc1
Details	mass density, 308.15 K [kg/m3]	mass density, 313.15 K [kg/m3]	viscosity, 308.15 K [mPa·s]	viscosity, 313.15 K [mPa·s]
x2 = 0	823.6	819.7	1.803	1.636
x2 = 0.0907	824.8	820.9	1.487	1.356
x2 = 0.2033	827.1	823.2	1.206	1.11
x2 = 0.3072	829.5	825.6	1.022	0.9578
x2 = 0.3701	831.2	827.2	0.9433	0.8765
x2 = 0.4761	834.2	830.2	0.8369	0.7835
x2 = 0.5798	837.5	833.4	0.7568	0.7089
x2 = 0.7008	841.7	837.6	0.6736	0.6403
x2 = 0.7922	845.1	840.9	0.6351	0.5979
x2 = 0.8908	849	844.8	0.5958	0.5629

Cc1ccccc1 [toluene] + c1ccccc1
x2 = 0
Details	mass density [kg/m3]	viscosity [mPa·s]
308.15 K	852.8	0.494
313.15 K	848.3	0.4676

c1ccccc1 [benzene] + C1CCCCCCC1
x1 = 1
Details	mass density [kg/m3]	viscosity [mPa·s]
308.15 K	862.9	0.5272
313.15 K	857.7	0.4942
